The text below walks through data of US20240148821A1, “PHARMACEUTICAL USE OF CYCLIC PEPTIDE COMPOUND” (CHUGAI SEIYAKU KABUSHIKI KAISHA, priority 2021, published 2024).

Test [1] deals with protein-protein interaction between Kras and SOS1 (biotin-tagged human Kras loaded with GDP, His-tagged human SOS1) (Homo sapiens (Human), UniProt P01116, G12D). The test can be described thus: Protein-protein interaction inhibition between Kras and SOS1 (KrasG12D-SOS PPI) using AlphaScreen.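 Also: kras produced in E. coli, Ni-coupled donor beads and streptavidin acceptor beads, excitation 680 nm with emission detected at 520–620 nm via singlet oxygen transfer.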 The test is classed as biochemical. The following applies: AlphaScreen; biotin-tagged human Kras loaded with GDP, His-tagged human SOS1; read-out: KRAS G12D-SOS PPI IC50. Background: In Alpha technology, singlet oxygen from a donor bead excites a nearby acceptor bead.

Test [2] has as its system Human pancreatic cancer cell line AsPC-1 (G12D mutation Kras). The experiment in a line: AsPC-1 cell growth inhibition (AsPC-1 CGI). The test is classed as cell-based. The settings on record: read-out: AsPC-1 cell growth inhibition, 50% growth inhibitory concentration (IC50 value); 96 hours, CellTiter-Glo, values classified in ranges.
Procedure: Test compounds were serially dilated with dimethyl sulfoxide, and 200 nL was then dispensed to a U-bottom 96-well plate using Labcyte Echo. […] The cell suspension was dispensed to a. plate containing a test compound at 100 μL per well and incubated at 37° C. in a 5% carbon dioxide gas incubator. 96 hours later, 80 μL of CellTiter-Glo (Promega) was added to each well and fluorescence was measured.

Each structure is given as a SMILES string. Numbered stars: 1 amine (or outer) side, 2 acyl side, 3 side chain; on linkers, the order of the positions; unused ones are H or OH. Bridge positions count the residues as written; N and C are the ends. Square brackets hold non-standard residues; d marks the D form. Peptide text beside a SMILES is read from it. * marks the point of attachment. hPhe(3,5-F2-4-CF3) = N[C@@H](CCc1cc(F)c(C(F)(F)F)c(F)c1)C(=O)O; hPhe(3-Cl-4-CF3) = N[C@@H](CCc1ccc(C(F)(F)F)c(Cl)c1)C(=O)O; hPhe(3-F,4-CF3) = N[C@@H](CCc1ccc(C(F)(F)F)c(F)c1)C(=O)O; NEtPhe(4-CF3) = CCN[C@@H](Cc1ccc(C(F)(F)F)cc1)C(=O)O; NMePhe(4-CF3) = CN[C@@H](Cc1ccc(C(F)(F)F)cc1)C(=O)O; 3Oxa8azabicyclo(3.2.1)octane = C1CC2COCC1N2*; NEtPhe(4-Me) = CCN[C@@H](Cc1ccc(C)cc1)C(=O)O; NMePhe(4-Me) = CN[C@@H](Cc1ccc(C)cc1)C(=O)O; NMeMet(O2) = CN[C@@H](CCS(C)(=O)=O)C(=O)O; NMedβ3hAla = C[C@H](CC(=O)[*:2])N(C)[*:1]; NMeAla(cPent) = CN[C@@H](CC1CCCC1)C(=O)O; NMeGly(cPent) = CN[C@H](C(=O)O)C1CCCC1; NMeCha = CN[C@@H](CC1CCCCC1)C(=O)O; Hyp = O=C(O)[C@@H]1C[C@@H](O)CN1; NMeI = CC[C@H](C)[C@H](NC)C(=O)O; NMeD = CN[C@@H](CC(=O)O)C(=O)O; NMeL = CN[C@@H](CC(C)C)C(=O)O; NEtAla = CCN[C@@H](C)C(=O)O; NMeV = CN[C@H](C(=O)O)C(C)C; NMeS = CN[C@@H](CO)C(=O)O; Morpholide = C1CN(*)CCO1; NMeA = CN[C@@H](C)C(=O)O; Piperidide = C1CCN(*)CC1; Ac5c = NC1(C(=O)O)CCCC1; Aze = O=C(O)[C@@H]1CCN1; Sar = CNCC(=O)O; Propyl = CCC*

`CC[C@H](C)[C@@H]1NC(=O)[C@H](CC(C)C)N(C)C(=O)C[C@@H](C(=O)N2CCCCC2)N(C)C(=O)[C@H](C2CCCC2)N(C)C(=O)C2(CCCC2)NC(=O)[C@@H]2CCCN2C(=O)[C@H](CCc2ccc(C(F)(F)F)c(Cl)c2)NC(=O)CN(C)C(=O)[C@H](Cc2ccc(C(F)(F)F)cc2)N(C)C(=O)[C@@H]2CCN2C(=O)[C@H](C)N(C)C1=O` [Compound 370] ([NMeL]I[NMeA][Aze][NMePhe(4-CF3)][Sar][hPhe(3-Cl-4-CF3)]P[Ac5c][NMeGly(cPent)][NMeD]-Piperidide; lactam N-11): the IC50 in test [1] is 0.35 nM; in test [2], at most 20 nM.
The matching figures for `CC[C@H](C)[C@@H]1NC(=O)[C@H](CC(C)C)N(C)C(=O)C[C@@H](C)N(C)C(=O)[C@H](C2CCCC2)N(C)C(=O)C2(CCCC2)NC(=O)[C@@H]2CCCN2C(=O)[C@H](CCc2cc(F)c(C(F)(F)F)c(F)c2)NC(=O)CN(C)C(=O)[C@H](Cc2ccc(C(F)(F)F)cc2)N(C)C(=O)[C@@H]2CCN2C(=O)[C@H](C)N(C)C1=O` [Compound 371] (cyclo([Ac5c][NMeGly(cPent)][NMedβ3hAla][NMeL]I[NMeA][Aze][NMePhe(4-CF3)][Sar][hPhe(3,5-F2-4-CF3)]P)): 1.3 nM and at most 20 nM.
For `CCO[C@@H]1C[C@H]2C(=O)NC3(CCCC3)C(=O)N(C)[C@@H]([C@@H](C)CC)C(=O)N(C)[C@H](C)CC(=O)N(C)[C@@H](CC(C)C)C(=O)N[C@@H]([C@@H](C)CC)C(=O)N(C)[C@@H](C)C(=O)N3CC[C@H]3C(=O)N(CC)[C@@H](Cc3ccc(C(F)(F)F)cc3)C(=O)N(C)CC(=O)N[C@@H](CCc3cc(F)c(C(F)(F)F)c(F)c3)C(=O)N2C1` [Compound 374] (cyclo([Ac5c][NMeI][NMedβ3hAla][NMeL]I[NMeA][Aze][NEtPhe(4-CF3)][Sar][hPhe(3,5-F2-4-CF3)][Hyp](Et))), the IC50 is 6.5 nM in test [1] and at most 20 nM in test [2].
As to `CC[C@H](C)[C@@H]1NC(=O)[C@H](CC(C)C)N(C)C(=O)C[C@@H](C(=O)N2CCOCC2)N(C)C(=O)[C@H]([C@@H](C)CC)N(C)C(=O)C2(CCCC2)NC(=O)[C@@H]2CCCN2C(=O)[C@H](CCc2ccc(C(F)(F)F)c(Cl)c2)NC(=O)CN(C)C(=O)[C@H](C2CCCC2)N(C)C(=O)[C@@H]2CCN2C(=O)[C@H](C)N(C)C1=O` [Compound 381] ([NMeL]I[NMeA][Aze][NMeGly(cPent)][Sar][hPhe(3-Cl-4-CF3)]P[Ac5c][NMeI][NMeD]-Morpholide; lactam N-11), the IC50 in test [1] was 1.6 nM; in test [2], at most 20 nM.
For `CC[C@H](C)[C@@H]1NC(=O)[C@H](CC(C)C)N(C)C(=O)C[C@@H](C(=O)N2CCOCC2)N(C)C(=O)[C@H](C2CCCC2)N(C)C(=O)C2(CCCC2)NC(=O)[C@@H]2CCCN2C(=O)[C@H](CCc2ccc(C(F)(F)F)c(F)c2)NC(=O)CN(C)C(=O)[C@H](CC2CCCCC2)N(C)C(=O)[C@@H]2CCN2C(=O)[C@H](C)N(C)C1=O` [Compound 390] ([NMeL]I[NMeA][Aze][NMeCha][Sar][hPhe(3-F,4-CF3)]P[Ac5c][NMeGly(cPent)][NMeD]-Morpholide; lactam N-11) the same measures were 0.77 nM and at most 20 nM.
For `CC[C@H](C)[C@@H]1NC(=O)[C@H](CC2CCCC2)N(C)C(=O)C[C@@H](C(=O)N(C)C)N(C)C(=O)[C@H]([C@@H](C)CC)N(C)C(=O)C2(CCCC2)NC(=O)[C@@H]2CCCN2C(=O)[C@H](CCc2ccc(C(F)(F)F)c(Cl)c2)NC(=O)CN(C)C(=O)[C@H](Cc2ccc(C)cc2)N(C)C(=O)[C@@H]2CCN2C(=O)[C@H](C)N(C)C1=O` [Compound 400] ([NMeAla(cPent)]I[NMeA][Aze][NMePhe(4-Me)][Sar][hPhe(3-Cl-4-CF3)]P[Ac5c][NMeI][NMeD]-NMe2; lactam N-11) the same measures were 0.85 nM and at most 20 nM.
For `CC[C@H](C)[C@@H]1NC(=O)[C@H](CC(C)C)N(C)C(=O)C[C@@H](C)N(C)C(=O)[C@H]([C@@H](C)CC)N(C)C(=O)C2(CCCC2)NC(=O)[C@@H]2CCCN2C(=O)[C@H](CCc2ccc(C(F)(F)F)c(F)c2)NC(=O)CN(C)C(=O)[C@H](Cc2ccc(C)cc2)N(C)C(=O)[C@@H]2CCN2C(=O)[C@H](C)N(C)C1=O` [Compound 404] (cyclo([Ac5c][NMeI][NMedβ3hAla][NMeL]I[NMeA][Aze][NMePhe(4-Me)][Sar][hPhe(3-F,4-CF3)]P)) the same measures were 4.8 nM and at most 20 nM.
Take `CCCOC[C@H]1C(=O)N(C)CC(=O)N[C@@H](CCc2ccc(C(F)(F)F)c(Cl)c2)C(=O)N2CCC[C@H]2C(=O)NC2(CCCC2)C(=O)N(C)[C@@H](C2CCCC2)C(=O)N(C)[C@H](C(=O)N2CCCCC2)CC(=O)N(C)[C@@H](CC(C)C)C(=O)N[C@@H]([C@@H](C)CC)C(=O)N(C)[C@@H](C)C(=O)N2CC[C@H]2C(=O)N1C` [Compound 415] ([NMeL]I[NMeA][Aze][NMeS](Propyl)[Sar][hPhe(3-Cl-4-CF3)]P[Ac5c][NMeGly(cPent)][NMeD]-Piperidide; lactam N-11): the IC50 in test [1] is 1.5 nM; in test [2], at most 20 nM.
The matching figures for `CC[C@H](C)[C@@H]1NC(=O)[C@H](CCS(C)(=O)=O)N(C)C(=O)C[C@@H](C(=O)N2CCCCC2)N(C)C(=O)[C@H](C(C)C)N(C)C(=O)C2(CCCC2)NC(=O)[C@@H]2CCCN2C(=O)[C@H](CCc2ccc(C(F)(F)F)c(Cl)c2)NC(=O)CN(C)C(=O)[C@H](CC2CCCCC2)N(C)C(=O)[C@@H]2CCN2C(=O)[C@H](C)N(C)C1=O` [Compound 419] ([NMeMet(O2)]I[NMeA][Aze][NMeCha][Sar][hPhe(3-Cl-4-CF3)]P[Ac5c][NMeV][NMeD]-Piperidide; lactam N-11): 2.4 nM and over 500 nM.
The matching figures for `CC[C@H](C)[C@@H]1NC(=O)[C@H](CC(C)C)N(C)C(=O)C[C@@H](C(=O)N2C3CCC2COC3)N(C)C(=O)[C@H](C2CCCC2)N(C)C(=O)C2(CCCC2)NC(=O)[C@@H]2CCCN2C(=O)[C@H](CCc2ccc(C(F)(F)F)c(Cl)c2)NC(=O)CN(C)C(=O)[C@H](Cc2ccc(C(F)(F)F)cc2)N(C)C(=O)[C@@H]2CCN2C(=O)[C@H](C)N(C)C1=O` [Compound 422] ([NMeL]I[NMeA][Aze][NMePhe(4-CF3)][Sar][hPhe(3-Cl-4-CF3)]P[Ac5c][NMeGly(cPent)][NMeD]-{3Oxa8azabicyclo(3.2.1)octane}; lactam N-11): 0.87 nM and at most 20 nM.
The matching figures for `CCO[C@@H]1C[C@H]2C(=O)NC3(CCCC3)C(=O)N(C)[C@@H](C3CCCC3)C(=O)N(C)[C@H](C)CC(=O)N(C)[C@@H](CC(C)C)C(=O)N[C@@H]([C@@H](C)CC)C(=O)N(C)[C@@H](C)C(=O)N3CC[C@H]3C(=O)N(CC)[C@@H](Cc3ccc(C)cc3)C(=O)N(C)CC(=O)N[C@@H](CCc3cc(F)c(C(F)(F)F)c(F)c3)C(=O)N2C1` [Compound 432] (cyclo([Ac5c][NMeGly(cPent)][NMedβ3hAla][NMeL]I[NMeA][Aze][NEtPhe(4-Me)][Sar][hPhe(3,5-F2-4-CF3)][Hyp](Et))): 4.5 nM and at most 20 nM.
Turning to `CC[C@H](C)[C@@H]1NC(=O)[C@H](CC(C)C)N(C)C(=O)C[C@@H](C(=O)N2CCCCC2)N(C)C(=O)[C@H](C(C)C)N(C)C(=O)C2(CCCC2)NC(=O)[C@@H]2CCCN2C(=O)[C@H](CCc2ccc(C(F)(F)F)c(Cl)c2)NC(=O)CN(C)C(=O)[C@H](CC2CCCCC2)N(C)C(=O)[C@@H]2CCN2C(=O)[C@H](C)N(CC)C1=O` [Compound 443] ([NMeL]I[NEtAla][Aze][NMeCha][Sar][hPhe(3-Cl-4-CF3)]P[Ac5c][NMeV][NMeD]-Piperidide; lactam N-11), the IC50 is 30 nM in test [1] and over 500 nM in test [2].
